We go through 27 molecules from patent US11236047B2 (ASTEX THERAPEUTICS LIMITED, priority 2017, dated 2022).

For one test, the system named is SN40R2 cells. Kind of test: Protocol B: SN40R2 CellTiter-Glo luminescent cell viability assay. The following applies: for IC50: read-out: SN40R2 IC50 (μM) (Protocol B).
In the next test the test system is SJSA-1 cells. Kind of test: Protocol B: SJSA-1 CellTiter-Glo luminescent cell viability assay. For orientation: Cellular ATP, detected with luciferase, serves as a proxy for viable cell number.
The mark [1] stands for this setting: read-out: SN40R2 % inhibition at 10.
Where [2] appears, read: read-out: SN40R2 % inhibition at 10, Protocol B, SN40R2, at 10 μM.
The mark [3] stands for this setting: read-out: SJSA1 IC50, Protocol B, SJSA-1.

As a reminder, the IC50 is the point on the concentration scale where inhibition reaches its midpoint. As a reminder, the inhibition is the change of the read-out against control, counted positive when it falls.

Molecules are shown by their SMILES. Where two headings read alike, the source gives them in different places.

Method for SN40R2 cells: Protocol B: SJSA-1 and SN40R2 Assays
The CellTiter-Glo® Luminescent Cell Viability Assay is a homogeneous method to determine the number of viable cells in culture based on quantitation of the ATP present, which signals the presence of metabolically active cells. […] 100 μl of CTG reagent (Promega #G7573) was added to all wells and luminescence was measured on the topcount. The EC50 values were determined from a sigmoidal 4 parameter curve fit using XLfit in conjunction with Activity Base (IDBS; Guildford, Surrey, UK).

Regarding `CN1CCN(CC(C)(O)c2cc(F)c3c(c2)C(=O)N(Cc2ccc(Cl)cc2S(C)(=O)=O)[C@@]3(OC2CCOC2)c2ccc(Cl)cc2)CC1` (single isomer, unassigned) [Example 67], the IC50 in the test on SN40R2 cells (72 h) is 9.4 µM. Take `CO[C@]1(c2ccc(Cl)cc2)c2c(F)cc(C(C)(O)C3CCN(c4ncccn4)CC3)cc2C(=O)N1Cc1ccc(Cl)cn1` (single isomer, unassigned) [Example 286]: the IC50 with SN40R2 cells came to 12 µM. Still for that read-out and setting: then `CN1CCC(C(C)(O)c2cc(F)c3c(c2)C(=O)N(Cc2ccc(Cl)cn2)[C@@]3(OCC2(C(N)=O)CC2)c2ccc(Cl)cc2)CC1` (single isomer, unassigned) [Example 306], with 13 µM. For `C=CC(O)(c1cc(F)c2c(c1)C(=O)N(Cc1ccc(C#N)cn1)[C@@]2(O[C@H]1C[C@@H](O)C1)c1ccc(Cl)cc1)c1cnn(C)c1` (single isomer, unassigned) [Example 361], the inhibition at 10 µM in the test with SN40R2 cells (setting [1]) stood at 8%. In the case of `CC(=O)N1CCC(C(C)(O)c2cc(F)c3c(c2)C(=O)N(Cc2ncc(Cl)cn2)[C@@]3(O[C@H]2C[C@@H](O)C2)c2ccc(Cl)cc2)CC1` (single isomer, unassigned) [Example 425], the inhibition at 10 µM with SN40R2 cells (setting [1]) amounted to 7%. Still for that read-out and setting: then `CO[C@]1(c2ccc(Cl)cc2)c2c(F)cc(C(C)(O)C3CCN(CC(=O)O)CC3)cc2C(=O)N1Cc1ccc(Cl)cn1` (single isomer, unassigned) [Example 459], with 7%. As to `CCC(O)(c1cc(F)c2c(c1)C(=O)N(Cc1ncc(C#N)cn1)[C@@]2(O[C@H]1CCOC1)c1ccc(Cl)cc1)c1ccn(C)n1` (single isomer, unassigned) [Example 489], the inhibition at 10 µM with SN40R2 cells (setting [2]) is -9%. Turning to `CCC(O)(CN1CCNCC1)c1cc(F)c2c(c1)C(=O)N(Cc1ncc(Cl)cn1)[C@@]2(O[C@H]1CCOC1)c1ccc(Cl)cc1` (single isomer, unassigned) [Example 524], the inhibition at 10 µM with SN40R2 cells (setting [1]) is 35%. On to `CCC(O)(CN1CC[C@@H](O)C1)c1cc(F)c2c(c1)C(=O)N(Cc1ncc(Cl)cn1)[C@@]2(O[C@H]1CCOC1)c1ccc(Cl)cc1` (single isomer, unassigned) [Example 526], for which the inhibition at 10 µM in the test on SN40R2 cells (setting [1]) was found to be 9%. Turning to `CC[C@@](O)(c1cc(F)c2c(c1)C(=O)N(Cc1ncc(Cl)cn1)[C@@]2(OC)c1ccc(Cl)cc1)C1CCN(CCO)CC1` (single isomer, unassigned) [Example 550], in the test on SN40R2 cells (setting [1]), the inhibition at 10 µM was 33%. As for `CCC(O)(c1cc(F)c2c(c1)C(=O)N(Cc1ncc(Cl)cn1)[C@@]2(OC[C@@H](C)O)c1ccc(Cl)cc1)C1(F)CCN(C)CC1` (single isomer, unassigned) [Example 572], the inhibition at 10 µM with SN40R2 cells (setting [2]) turned out to be 23%. With `CO[C@]1(c2ccc(Cl)cc2)c2ccc(C(C)(O)CN3CCN(C)CC3)cc2C(=O)N1Cc1ccc(Cl)cn1` (stereo partly drawn) [Example 255, (3R)-3-(4-chlorophenyl)-2-[(5-chloropyridin-2-yl)methyl]-6-[2-hydroxy-1-(4-methylpiperazin-1-yl)propan-2-yl]-3-methoxy-2,3-dihydro-1H-isoindol-1-one], the IC50 with SN40R2 cells worked out at 7.1 µM. Turning to `CO[C@]1(c2ccc(Cl)cc2)c2c(F)cc(C(C)(O)C3CCN(C)CC3)cc2C(=O)N1Cc1ccc(Cl)cn1` (stereo partly drawn) [Example 304, (3R)-3-(4-chlorophenyl)-2-[(5-chloropyridin-2-yl)methyl]-4-fluoro-6-[1-hydroxy-1-(1-methylpiperidin-4-yl)ethyl]-3-methoxy-2,3-dihydro-1H-isoindol-1-one], the IC50 in the test on SN40R2 cells came to 9 µM.

Regarding `COc1nc(C)ccc1CN1C(=O)c2cc(C(C)(C)O)cc(F)c2[C@]1(OC)c1ccc(Cl)cc1` [Example 315, (3R)-3-(4-chlorophenyl)-4-fluoro-6-(2-hydroxypropan-2-yl)-3-methoxy-2-[(2-methoxy-6-methylpyridin-3-yl)methyl]-2,3-dihydro-1H-isoindol-1-one], the IC50 with SN40R2 cells turned out to be 13 µM.

As for `CCC(O)(c1cc(F)c2c(c1)C(=O)N(Cc1ccc(C#N)cn1)[C@@]2(O[C@H]1C[C@@H](O)C1)c1ccc(Cl)cc1)c1cnn(C)c1` (stereo partly drawn) [Example 339, 6-{[(1R)-1-(4-chlorophenyl)-7-fluoro-5-[1-hydroxy-1-(1-methyl-1H-pyrazol-4-yl)propyl]-3-oxo-1-[cis-3-hydroxycyclobutoxy]-2,3-dihydro-1H-isoindol-2-yl]methyl}pyridine-3-carbonitrile], the inhibition at 10 µM in the test with SN40R2 cells (setting [1]) amounted to 3%. On the same count and under the same terms, then `CCC(O)(c1cc(F)c2c(c1)C(=O)N(Cc1ccc(C#N)cn1)[C@@]2(OCCO)c1ccc(Cl)cc1)c1cn(C)cn1` (stereo partly drawn) [Example 364, 6-{[(1R)-1-(4-chlorophenyl)-7-fluoro-5-[1-hydroxy-1-(1-methyl-1H-imidazol-4-yl)propyl]-1-(2-hydroxyethoxy)-3-oxo-2,3-dihydro-1H-isoindol-2-yl]methyl}pyridine-3-carbonitrile], with 9%; and `CCC(O)(c1cc(F)c2c(c1)C(=O)N(Cc1ccc(C#N)cn1)[C@@]2(O[C@H]1CCOC1)c1ccc(Cl)cc1)c1ccn(C)c(=O)c1` (stereo partly drawn) [Example 374, 6-{[(1R)-1-(4-chlorophenyl)-7-fluoro-5-[1-hydroxy-1-(1-methyl-2-oxo-1,2-dihydropyridin-4-yl)propyl]-3-oxo-1-[(3S)-oxolan-3-yloxy]-2,3-dihydro-1H-isoindol-2-yl]methyl}pyridine-3-carbonitrile], with 2%. The same measure, in the same setting: then `CC(O)(c1cc(F)c2c(c1)C(=O)N(Cc1ccc(C#N)cn1)[C@@]2(O[C@H]1CCOC1)c1ccc(Cl)cc1)C1(F)CCOCC1` (stereo partly drawn) [Example 388, 6-{[(1R)-1-(4-chlorophenyl)-7-fluoro-5-[1-(4-fluorooxan-4-yl)-1-hydroxyethyl]-3-oxo-1-[(3S)-oxolan-3-yloxy]-2,3-dihydro-1H-isoindol-2-yl]methyl}pyridine-3-carbonitrile], with 4%. Same read-out and setting: then `O=C1c2cc(C(O)C3CCS(=O)(=O)CC3)cc(F)c2[C@](OCC2(O)CC2)(c2ccc(Cl)cc2)N1Cc1ncc(Cl)cn1` (stereo partly drawn) [Example 399, 4-{[(1R)-1-(4-chlorophenyl)-2-[(5-chloropyrimidin-2-yl)methyl]-7-fluoro-1-[(1-hydroxycyclopropyl)methoxy]-3-oxo-2,3-dihydro-1H-isoindol-5-yl](hydroxy)methyl}-1λ6-thiane-1,1-dione], with 2%. Turning to `CC(C)(O)c1cc(F)c2c(c1)C(=O)N([C@@H](CO)c1ccc(Cl)cn1)[C@@]2(OCC1(CO)CC1)c1ccc(Cl)cc1` [Example 418, (3R)-3-(4-Chlorophenyl)-2-[(1R)-1-(5-chloropyridin-2-yl)-2-hydroxyethyl]-4-fluoro-3-{[1-(hydroxymethyl)cyclopropyl]methoxy}-6-(2-hydroxypropan-2-yl)-2,3-dihydro-1H-isoindol-1-one], the half-inhibitory concentration (IC50) in the test on SJSA-1 cells (Homo sapiens, SJSA-1, read-out: SJSA1 IC50 (μM) (Protocol B), SJSA-1, Protocol B) came to 0.28 µM. With `CCC(O)(c1cc(F)c2c(c1)C(=O)N(Cc1ccc(C#N)cn1)[C@@]2(O[C@@H]1CCOC1)c1ccc(Cl)cc1)c1cn(C)cn1` (stereo partly drawn) [Example 426, 6-{[(1R)-1-(4-chlorophenyl)-7-fluoro-5-[1-hydroxy-1-(1-methyl-1H-imidazol-4-yl)propyl]-3-oxo-1-[(3R)-oxolan-3-yloxy]-2,3-dihydro-1H-isoindol-2-yl]methyl}pyridine-3-carbonitrile], the inhibition at 10 µM with SN40R2 cells (setting [1]) worked out at 4%.

`Cn1cnc(C(O)(c2cc(F)c3c(c2)C(=O)N(Cc2ccc(C#N)cn2)[C@@]3(O[C@H]2CCOC2)c2ccc(Cl)cc2)C2CC2)c1` (stereo partly drawn) [Example 433, 6-{[(1R)-1-(4-chlorophenyl)-5-[cyclopropyl(hydroxy)(1-methyl-1H-imidazol-4-yl)methyl]-7-fluoro-3-oxo-1-[(3S)-oxolan-3-yloxy]-2,3-dihydro-1H-isoindol-2-yl]methyl}pyridine-3-carbonitrile]: the inhibition at 30 µM in the test on SN40R2 cells (read-out: SN40R2 % inhibition at 30) is 20%.

Regarding `Cn1cnc(C(O)(c2cc(F)c3c(c2)C(=O)N(Cc2ccc(C#N)cn2)[C@@]3(O[C@H]2CCOC2)c2ccc(Cl)cc2)C2CC2)c1` (stereo partly drawn) [Example 434, 6-{[(1R)-1-(4-chlorophenyl)-5-[cyclopropyl(hydroxy)(1-methyl-1H-imidazol-4-yl)methyl]-7-fluoro-3-oxo-1-[(3S)-oxolan-3-yloxy]-2,3-dihydro-1H-isoindol-2-yl]methyl}pyridine-3-carbonitrile], the inhibition at 10 µM in the test with SN40R2 cells (setting [1]) stood at 7%. For the molecule `[2H]C([2H])(O)C1(C([2H])([2H])O[C@]2(c3ccc(Cl)cc3)c3c(F)cc(C(O)(CC)c4cn(C)cn4)cc3C(=O)N2Cc2ccc(C#N)cn2)CC1` (stereo partly drawn) [Example 440, 6-{[(1R)-1-(4-chlorophenyl)-7-fluoro-1-({1-[hydroxy(^2H2)methyl]cyclopropyl}(^2H2)methoxy)-5-[1-hydroxy-1-(1-methyl-1H-imidazol-4-yl)propyl]-3-oxo-2,3-dihydro-1H-isoindol-2-yl]methyl}pyridine-3-carbonitrile], the IC50 in the test on SJSA-1 cells (setting [3]) stood at 1.9 µM.

Consider `CCC(O)(c1cc(F)c2c(c1)C(=O)N(Cc1ccc(C#N)cn1)[C@@]2(O[C@H]1CCOC1)c1ccc(Cl)cc1)C1(F)CCOCC1` (stereo partly drawn) [Example 445, 6-{[(1R)-1-(4-chlorophenyl)-7-fluoro-5-[1-(4-fluorooxan-4-yl)-1-hydroxypropyl]-3-oxo-1-[(3S)-oxolan-3-yloxy]-2,3-dihydro-1H-isoindol-2-yl]methyl}pyridine-3-carbonitrile], for which the inhibition at 10 µM in the test on SN40R2 cells (setting [1]) was determined as 16%. As to `CCC(O)(c1cc(F)c2c(c1)C(=O)N(Cc1ncc(Cl)cn1)[C@@]2(OC)c1ccc(Cl)cc1)C1CCNCC1` (stereo partly drawn) [Example 450, (3R)-3-(4-chlorophenyl)-2-[(5-chloropyrimidin-2-yl)methyl]-4-fluoro-6-[1-hydroxy-1-(piperidin-4-yl)propyl]-3-methoxy-2,3-dihydro-1H-isoindol-1-one], the inhibition at 10 µM in the test on SN40R2 cells (setting [1]) worked out at 15%.

As to `CC(O)(c1cc(F)c2c(c1)C(=O)N(Cc1ncc(Cl)cn1)[C@@]2(O[C@H]1C[C@@H](O)C1)c1ccc(Cl)cc1)[C@H]1CC[C@H](O)CC1` (stereo partly drawn) [Example 496], the concentration for half-maximal inhibition (IC50) in the test with SJSA-1 cells (setting [3]) amounted to 1.8 µM.
